Test results as given in patent US6878751B1, “Administration of resveratrol to treat inflammatory respiratory disorders” (Imperial College of Science Technology and Medicine, priority 2000, dated 2005).

Assays:
[1] = test system: NF-κB dependent transcription; test: NF-κB luciferase reporter in stably transfected A549 cells; assay type: cell-based, human
Procedure: (§1) The expression of inflammatory genes was then evaluated in cells transformed with luciferase reporter genes containing sites for transcription factors (Tf, Tfs). The A549 cells were stably transfected by routine methods with luciferase reporters containing the transcription factors NF-κB, TRE (AP-1, TPA responsive element) and CRE (cAMP responsive element). Luciferase activity of cell lysates resuspended in […] cell lysis buffer mixed (40 mml resuspended lysate: 40 mml assay reagent) was measured using the Luciferase Assay System (Promega), with emitted light measured by a Turner DesignsTD-20/20 luminometer (Steptech Instruments Ltd., Stevenage, U.K.)

[2] = test system: CRE dependent transcription; test: CRE luciferase reporter in stably transfected A549 cells; assay type: cell-based, human
Procedure: as §1

EC50 ([1]; Homo sapiens, read-out: EC50 for inhibition of NF-κB dependent transcription): 16 ± 12 µM
EC50 ([2]; Homo sapiens, read-out: EC50 for inhibition of CRE dependent transcription): 3.4 ± 3 µM
SMILES: C[C@@H]1C[C@H]2[C@@H]3CCC4=CC(=O)C=C[C@]4(C)[C@@]3(F)[C@@H](O)C[C@]2(C)[C@@]1(O)C(=O)CO [Dexamethasone, dexamethasone, reference compound]
extent of inhibition of NF-κB dependent transcription [1]: 41%
extent of inhibition of CRE dependent transcription [2]: 62%
